Each block holds one compound with its values, some of them ahead of it.
How the values were obtained:
[1] = biological target: T1, Beta-secretase 1 (Homo sapiens, UniProt P56817); assay: Inhibition of BACE1 (unknown origin) by FRET assay
[2] = biological target: T2, Cathepsin D (Homo sapiens, UniProt P07339); assay: Inhibition of cathepsin D (unknown origin)
[3] = biological target: T2, Cathepsin D; assay: Inhibition of cathepsin D (unknown origin) at 10 uM
[4] = Permeability from apical to basolateral side in MDCK cells at 50 uM; format: ADME, cell-based, Canis lupus familiaris; settings: dog
[5] = biological target: T3, Beta-secretase 2 (Homo sapiens, UniProt Q9Y5Z0); assay: Inhibition of BACE2 (unknown origin)
T3 sequence (Q9Y5Z0 whole entry): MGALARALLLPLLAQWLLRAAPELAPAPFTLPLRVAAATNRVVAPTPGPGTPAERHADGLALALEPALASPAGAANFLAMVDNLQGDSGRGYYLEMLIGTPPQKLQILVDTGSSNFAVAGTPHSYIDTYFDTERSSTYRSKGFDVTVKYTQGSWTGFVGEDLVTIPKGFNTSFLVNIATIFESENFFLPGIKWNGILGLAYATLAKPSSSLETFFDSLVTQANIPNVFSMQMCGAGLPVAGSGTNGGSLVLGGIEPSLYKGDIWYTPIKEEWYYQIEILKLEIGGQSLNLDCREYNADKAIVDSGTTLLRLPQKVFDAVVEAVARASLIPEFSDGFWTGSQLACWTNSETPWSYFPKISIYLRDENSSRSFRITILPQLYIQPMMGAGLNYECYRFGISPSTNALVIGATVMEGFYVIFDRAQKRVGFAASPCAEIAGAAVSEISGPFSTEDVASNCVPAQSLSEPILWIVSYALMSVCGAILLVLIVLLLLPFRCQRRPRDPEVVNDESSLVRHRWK

[6] = biological target: T1, Beta-secretase 1; assay: Inhibition of BACE1 in […] PC12 cells expressing APP Sweden mutant at 10 uM; format: cell-based; settings: PC-12
[7] = biological target: T1, Beta-secretase 1; assay: Inhibition of BACE1 in […] PC12 cells expressing APP Sweden mutant; format: cell-based, PC-12
[8] = biological target: T1, Beta-secretase 1; assay: Inhibition of BACE1 (unknown origin)

T2 sequence (P07339 65-162 limits assumed): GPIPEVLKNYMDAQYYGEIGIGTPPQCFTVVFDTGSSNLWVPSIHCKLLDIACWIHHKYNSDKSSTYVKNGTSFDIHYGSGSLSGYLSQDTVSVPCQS
T2 sequence (P07339 169-412 limits assumed): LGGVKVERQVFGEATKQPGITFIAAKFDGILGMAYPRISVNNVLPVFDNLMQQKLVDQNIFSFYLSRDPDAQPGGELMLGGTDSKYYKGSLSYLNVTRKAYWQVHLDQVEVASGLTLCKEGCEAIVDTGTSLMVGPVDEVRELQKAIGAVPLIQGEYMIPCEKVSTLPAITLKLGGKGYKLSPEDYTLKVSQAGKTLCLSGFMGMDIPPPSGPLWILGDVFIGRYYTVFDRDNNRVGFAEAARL
T1 sequence (P56817 whole entry): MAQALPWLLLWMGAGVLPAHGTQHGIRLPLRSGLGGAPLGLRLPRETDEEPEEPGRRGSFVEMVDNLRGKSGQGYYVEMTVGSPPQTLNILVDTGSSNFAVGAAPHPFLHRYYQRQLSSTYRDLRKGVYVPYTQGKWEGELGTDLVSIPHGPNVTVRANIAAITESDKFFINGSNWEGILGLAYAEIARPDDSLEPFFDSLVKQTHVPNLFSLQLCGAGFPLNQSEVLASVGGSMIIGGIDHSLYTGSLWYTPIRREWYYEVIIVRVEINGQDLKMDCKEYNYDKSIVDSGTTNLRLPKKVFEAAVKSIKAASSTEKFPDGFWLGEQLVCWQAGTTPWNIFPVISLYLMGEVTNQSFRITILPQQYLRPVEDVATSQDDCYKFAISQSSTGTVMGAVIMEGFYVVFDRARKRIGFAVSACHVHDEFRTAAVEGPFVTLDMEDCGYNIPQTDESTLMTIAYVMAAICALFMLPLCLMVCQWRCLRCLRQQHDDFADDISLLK

Structure (SMILES): CCCS(=O)(=O)N1C[C@H](Nc2nc3cc(F)ccc3[nH]2)[C@@H](OCc2ccc(C(C)C)cc2)C1
- IC50 [1]: 640 nM

Structure (SMILES): Cc1ccc2[nH]c(N[C@H]3CN(C(=O)c4ccccc4)C[C@@H]3OC(=O)c3ccc(-c4ccccc4)cc3)nc2c1
- IC50 [2]: > 10000 nM
- IC50 [1]: 390 nM
- inhibition [3]: 4.2%
- Papp A→B at 50 µM [4]: 5.2 ×10⁻⁶ cm/s
- IC50 [5]: 5700 nM
- inhibition [6]: 52%

Structure (SMILES): COC(=O)CN1C[C@H](Nc2nc3cc(C)ccc3[nH]2)[C@@H](OC(=O)c2ccc(-c3ccccc3)cc2)C1
- IC50 [1]: 570 nM

Structure (SMILES): COc1ccc2[nH]c(N[C@H]3CN(C(=O)OC(C)(C)C)C[C@@H]3OC(=O)c3ccc(-c4ccccc4)cc3)nc2c1
- IC50 [1]: 450 nM

Structure (SMILES): CC(C)c1ccc(CO[C@H]2CN(CC(N)=O)C[C@@H]2Nc2nc3cc(F)ccc3[nH]2)cc1
- IC50 [1]: > 5000 nM

Structure (SMILES): CCCS(=O)(=O)N1C[C@H](Nc2nc3cc(F)ccc3[nH]2)[C@@H](OC(=O)c2ccc(N(C)C)cc2)C1
- IC50 [1]: 3150 nM

Structure (SMILES): CC(C)c1ccc(CO[C@H]2CNC[C@@H]2Nc2nc3cc(F)ccc3[nH]2)cc1
- IC50 [1]: > 5000 nM

Structure (SMILES): Cc1ccc2[nH]c(N[C@H]3CNC[C@@H]3OC(=O)c3ccc(-c4ccccc4)cc3)nc2c1
- IC50 [2]: > 10000 nM
- IC50 [1]: 660 nM
- inhibition [3]: 4.5%
- Papp A→B at 50 µM [4]: 4.8 ×10⁻⁶ cm/s
- IC50 [5]: 4300 nM
- IC50 [7]: 3200 nM

Structure (SMILES): CC(C)(C)OC(=O)N1C[C@H](Nc2nc3cc(Cl)ccc3[nH]2)[C@@H](OC(=O)c2ccc(-c3ccccc3)cc2)C1
- IC50 [1]: 440 nM

Structure (SMILES): CC(C)c1ccc(C(=O)O[C@H]2CN(C(=O)OC(C)(C)C)C[C@@H]2Nc2nc3cc(F)ccc3[nH]2)cc1
- IC50 [2]: > 10000 nM
- IC50 [1]: 70 nM
- inhibition [3]: 1.4%
- Papp A→B at 50 µM [4]: 2.3 ×10⁻⁶ cm/s
- IC50 [5]: 4400 nM
- inhibition [6]: 34%

Structure (SMILES): CC(C)c1ccc(CO[C@H]2CN(C(=O)OC(C)(C)C)C[C@@H]2Nc2nc3cc(F)ccc3[nH]2)cc1
- IC50 [1]: 730 nM

The next lines start with the values.

- IC50 [1]: > 5000 nM
Structure (SMILES): CC(C)c1ccc(CO[C@H]2CN(CCO)C[C@@H]2Nc2nc3cc(F)ccc3[nH]2)cc1

- IC50 [2]: > 10000 nM
- IC50 [1]: 50 nM
- inhibition [3]: 1.1%
- Papp A→B at 50 µM [4]: 1.5 ×10⁻⁶ cm/s
- IC50 [5]: 10100 nM
- inhibition [6]: 40%
Structure (SMILES): CC(C)(C)OC(=O)N1C[C@H](Nc2nc3cc(F)ccc3[nH]2)[C@@H](OC(=O)c2ccc(-c3ccccc3)cc2)C1

- IC50 [1]: 720 nM
Structure (SMILES): CC(C)c1ccc(C(=O)O[C@H]2CN(S(=O)(=O)c3ccccc3)C[C@@H]2Nc2nc3cc(F)ccc3[nH]2)cc1

- IC50 [1]: 720 nM
Structure (SMILES): CC(=O)N1C[C@H](Nc2nc3cc(C)ccc3[nH]2)[C@@H](OC(=O)c2ccc(-c3ccccc3)cc2)C1

- IC50 [2]: > 10000 nM
- IC50 [1]: 120 nM
- inhibition [3]: 5.7%
- Papp A→B at 50 µM [4]: 13 ×10⁻⁶ cm/s
- IC50 [5]: 8900 nM
- IC50 [7]: 1700 nM
Structure (SMILES): CC(C)(C)OC(=O)N1C[C@H](Nc2nc3cc(F)ccc3[nH]2)[C@@H](OCc2ccc(-c3ccccc3)cc2)C1

- IC50 [1]: 210 nM
Structure (SMILES): Cc1ccc2[nH]c(N[C@H]3CN(C(=O)OC(C)(C)C)C[C@@H]3OC(=O)c3ccc(-c4ccccc4)cc3)nc2c1

- IC50 [1]: 360 nM
Structure (SMILES): CC(C)(C)OC(=O)N1C[C@H](Nc2nc3cc(Cl)ccc3[nH]2)[C@@H](OC(=O)c2cccc(Oc3ccccc3)c2)C1

- IC50 [1]: 190 nM
Structure (SMILES): Cc1ccc2[nH]c(N[C@H]3CN(C(=O)OC(C)(C)C)C[C@@H]3OC(=O)c3cccc(-c4ccc(F)cc4)c3)nc2c1

- IC50 [8]: 600 nM
Structure (SMILES): COc1ccc(N2CCN([C@@H]3CN(C(=O)Nc4cc(Cl)cc(Cl)c4)CC[C@H]3OC(=O)c3ccc(Oc4ccccc4)cc3)CC2)cc1

- IC50 [1]: 1350 nM
Structure (SMILES): CN(C)c1ccc(C(=O)O[C@H]2CN(C(=O)OC(C)(C)C)C[C@@H]2Nc2nc3cc(F)ccc3[nH]2)cc1

- IC50 [1]: 480 nM
Structure (SMILES): CC(C)c1ccc(CO[C@H]2CN(S(=O)(=O)c3ccccc3)C[C@@H]2Nc2nc3cc(F)ccc3[nH]2)cc1

- IC50 [1]: 670 nM
Structure (SMILES): CCCS(=O)(=O)N1C[C@H](Nc2nc3cc(F)ccc3[nH]2)[C@@H](OC(=O)c2ccc(C(C)C)cc2)C1
